Values of other authors, collected in publication PMC4734747 (Journal of nuclear medicine : official publication, Society …, 2013).

How the values were obtained:
P-gp = conditions: rodents; ref 19 (Verbeek et al.)
P-gp at the human BBB [1] = conditions: tariquidar 6 mg/kg; not necessarily the maximal increase
P-gp at the human BBB [2] = conditions: brain, humans, no P-gp inhibition
P-gp at the BBB = conditions: brain, macaques, no P-gp inhibition

| Structure (SMILES) | affinity to P-gp relative to verapamil (P-gp) | increase in the brain distribution (reported by K1) after P-gp inhibition (P-gp at the human BBB [1]) | mean baseline K1 (P-gp at the human BBB [2]) | mean baseline K1 (P-gp at the BBB) |
| --- | --- | --- | --- | --- |
| CNCCCC(C#N)(c1ccc(OC)c(OC)c1)C(C)C (stereo not shown) [D617] | lower affinity to P-gp than does verapamil |  |  |  |
| CNC(=O)C(CCN1CCC(O)(c2ccc(Cl)cc2)CC1)(c1ccccc1)c1ccccc1 [dLOP, N-desmethyl-loperamide] |  | 4 fold | 0.015 mL/min/g | 0.04 mL/min/g |
